From PMC4826872, “Underlying Resistance Mechanisms in the Cynosurus echinatus Biotype to Acetyl CoA Carboxylase-Inhibiting Herbicides” (Frontiers in Plant Science, 2016) come the findings set out here.

Read-outs that look alike come from different tables or passages of the source.

The target of this experiment is T1, ACCase (chloroplastic acetyl coenzyme A carboxylase).
T1 construct: plastid and cytosolic forms not separated; S biotype has Arg1789, Met2065, Gly2067, Val2077
As to the kind of experiment: NaH14CO3 incorporation into acid-stable product (malonyl-CoA). The experiment is classed as biochemical, Cynosurus echinatus. Conditions: 5 mM acetyl-CoA, 1.5 mM ATP, 5 mM MgCl2, 15 mM bicarbonate, pH 8.3, 34°C, read-out: I50. The source says: NaH14CO3 incorporation into acid-stable product (malonyl-CoA) on ACCase (chloroplastic acetyl coenzyme A carboxylase)

With `CC(Oc1ccc(Oc2nc3ccc(Cl)cc3o2)cc1)C(=O)O` (racemic) [Fenoxaprop], the IC50 (R biotype, stated gain) was 24.2 µM and the IC50 (S biotype) was 1.58 µM.
For `C[C@@H](Oc1ccc(Oc2ccc(C#N)cc2F)cc1)C(=O)O` [Cihalofop], in that order: 70.8 µM and 10.2 µM.
The matching figures for `CCCC(=NOCC)C1=C(O)CC(C2CCCSC2)CC1=O` (stereo not drawn) [Cycloxidim]: 7.89 µM and 2.5 µM.
The matching figures for `CC(Oc1ccc(Oc2ccc(Cl)cc2Cl)cc1)C(=O)O` (stereo not drawn) [Diclofop]: 63.5 µM and 4.53 µM.
Regarding `CCc1cc(C)cc(CC)c1-c1c(OC(=O)C(C)(C)C)n2n(c1=O)CCOCC2` [Pinoxaden], the IC50 came to 9.1 µM (R biotype, stated gain) and 0.39 µM (S biotype).
The matching figures for `CCCC(=NOCC)C1=C(O)CC(CC(C)SCC)CC1=O` (stereo not drawn) [Setoxidim]: 3500 µM and 800 µM.
